Measurements from patent publication US12083091B2, “Inhibitors of glucosylceramide degradation in the treatment of diseases of the motor units” (priority 2016, dated 2024).

Experiments:
GCase = test: Total GCase activity in the spinal cord after CBE treatment; type: in vivo, mice; settings: CBE 10 mg/kg/day, intraperitoneal
SOD1 mice = test: SOD1(G86R) mice, animal model of ALS: disease onset, motor function, motor unit histology, survival; type: in vivo
Method: Ambroxol was given orally in the drinking water. […] Non-transgenic littermates served as controls. […] Average speed, paw swing and stride length were measured. […] Non-transgenic littermates served as controls.
Spinal cord: Lumbar spinal cord fixed in paraformaldehyde 4% were used for studying the distribution of GM1a around motor neurons. Coronal section 40 μm thick were realized with a vibratome and were stained with an anti-[…] (1/100, Millipore, France) and an alexa594 conjugated goat (1/200, Jackson) antibodies. GM1a was detected with the cholera toxin sub-unit beta coupled with an Allexa488 dye (1/200, ThermoFisher). Fluorescence intensity of GM1a was calculated with an image processing program (ImageJ). For motor neuron couting, all neurons located in the ventral horn, that were >400 μm^2 in size and ChAT positive were considered as alpha motor neurons. Six sections of spinal cord that were apart over a length of 0.24 mm were counted.
Muscle bundles: Tibialis anterior muscles fixed in paraformaldehyde 4% were dissected into bundles under a binocular microscope. Bundles were collected from at least three different parts of the muscle. Acetylcholine receptors in the postsynaptic apparatus of neuromuscular junctions were labeled with rhodamine-conjugated α-bungarotoxin (Sigma-Aldrich). Immunofluorescent labeling of nerve terminals was performed with a rabbit polyclonal anti-synaptophysin antibody diluted 1/200 (Abcam, Cambridge, UK), and Alexa conjugated goat anti-rabbit diluted 1/500 (Jackson). Neuromuscular junction integrity was assessed by studying the colocalization of synaptophysin and bungarotoxin signal. […].
Coronal muscle sections: Twenty-micrometer sections were obtained by cutting isopentane fresh-frozen tibialis anterior muscles perpendicular to the muscle axis with a cryostat at −20° C. (Leica, Nanterre, France). Acetylcholine receptors in the postsynaptic apparatus of neuromuscular junctions were labeled with rhodamine-conjugated α-bungarotoxin (Sigma-Aldrich). GM1a distribution was labeled with the cholera toxin sub-unit beta coupled with an Allexa488 dye (1/200, ThermoFisher).

[1] = system: muscle and spinal transcriptomes of SOD1 mice; test: Muscle and spinal transcriptomes of SOD1 mice after CBE treatment (GO biological functions of restored genes); type: in vivo; settings: spinal cord and muscle
non-transgenic mice [2] = settings: mouse, in vivo
non-transgenic mice [3] = test: Sciatic nerve injury (crush) in non-transgenic mice: functional recovery and re-innervation; type: in vivo
Method: Sciatic Nerve Injury: Peripheral nerve injury was performed in order to induce muscle denervation and axonal regeneration. Non-transgenic mice were anesthetized with ketamine chlorohydrate (100 mg/kg) and xylazine (5 mg/kg). The sciatic nerve was exposed at mid-thigh level and crushed with fine forceps for 30 s. The skin incision was sutured, and mice were allowed to recover. The hind limb, contralateral to the lesion, served as control. Mice were treated with CBE (10 mg/kg/d) for 12 days, or with ambroxol (120-150 mg/kg/day) for 10 days, starting the day before surgery. Mice were followed on a daily basis. Body mass, muscle strength of individual hind limbs (mean of three tests was recorded), and locomotor profile (catwalk, Noldus) were analyzed.
Here, we sought to determine the effect of CBE on the motor recovery after nerve injury in non-transgenic mice. CBE was administrated on a daily basis (10 mg/kg/day), from […] until the end of the study, 12 days after injury.

[4] = system: co-culture of spinal explants and myoblasts; test: Co-culture of spinal explants and myoblasts: neurite network / area of innervation; type: cell-based; settings: ambroxol 100 μM in culture medium
Method: We next sought to determine whether another inhibitor of GlcCer degradation could support axonal plasticity and improve the phenotype of SOD1 mice. We used ambroxol, which is an inhibitor of GBA2 activity (Narita, A. et al. Ambroxol chaperone therapy for neuronopathic Gaucher disease: A pilot study. Ann. Clin. Transl. Neurol. 3, 200-215 (2016)). First, ambroxol (100 μM) was added to the culture medium of a co-culture of spinal explants and myoblasts. […] Next, ambroxol was given per os to SOD1 mice (120-150 mg/kg/day) from day 75 to day 95. […] In a second cohort of mice, the treatment was initiated at disease onset to study ambroxol's effect on late disease stage and survival. […] Next, ambroxol was given to mice subjected to sciatic nerve injury in order to determine its effects on peripheral nerve regeneration.

[5] = CBE 10 mg/kg/day, 12 days after injury
[6] = CBE 10 mg/kg/day, until 12 days after injury, vs placebo
[7] = ambroxol, second cohort, treatment initiated at disease onset
[8] = ambroxol 120-150 mg/kg/day for 10 days

SMILES: OC1C(O)C(O)C2OC2C1O (centres unmarked) [CBE, 1,2-anhydro-myo-inositol]
- GCase activity in the spinal cord (GCase): decrease
- fibrillation events (electromyogram), sign of muscle denervation, vs SOD1 placebo group (SOD1 mice; CBE 10 mg/kg/day i.p., 95 days of age): less frequently detected
- number of fully innervated NMJs (SOD1 mice; CBE 10 mg/kg/day i.p., 95 days of age, tibialis anterior): comparable to wild type and significantly higher to SOD1 mice receiving the placebo
- loss of large motor neurons in lumbar spinal cord compared to wild type (SOD1 mice; CBE 10 mg/kg/day i.p., 95 days of age, placebo SOD1 almost 60% loss): 30%
- presence of axonal GM1a at presynaptic axons of NMJs (SOD1 mice; CBE 10 mg/kg/day i.p., SOD1 mice): clearly detectable
- development of locomotor impairments (average speed, stride length, paw swing; catwalk) (SOD1 mice; CBE 10 mg/kg/day i.p., SOD1 mice at 95 days of age): completely prevented
- delay of disease onset (onset of muscle strength loss) compared to the placebo group (SOD1 mice; CBE 10 mg/kg/day i.p., from 75 to 95 days of age): 6 days
- astrocyte activation (GFAP staining fluorescence intensity) (SOD1 mice; CBE 10 mg/kg/day i.p., spinal cord ventral horn): no influence
- global transcriptomic deregulations in SOD1 mice [1]: partially corrected
- loss of motor function in non-transgenic mice (non-transgenic mice [2]): without inducing loss of motor function
- side effects (body mass and muscle strength evolution upon treatment) (non-transgenic mice [2]): does not induce side effects
- locomotor profile of the injured paw (contact area, hindlimb step cycle) (non-transgenic mice [3]; [5]): closer to the contralateral side
- muscle fibrillation at sacrifice (non-transgenic mice [3]; [5]): less muscle fibrillation
- muscle strength recovery after sciatic nerve injury (non-transgenic mice [3]; [6]): occurred faster, by several days
- time to toe spreading after sciatic nerve injury (non-transgenic mice [3]; [6]): occurred faster, by several days

SMILES: Nc1c(Br)cc(Br)cc1CN[C@H]1CC[C@H](O)CC1 [ambroxol, trans-4-(2-Amino-3,5-dibrombenzylamino)-cyclohexanol]
- innervation status (NMJ integrity) (SOD1 mice; ambroxol 120-150 mg/kg/day per os, day 75 to 95, at 95 days of age): improved
- delay of first loss of muscle strength (disease onset) compared to placebo (SOD1 mice; ambroxol 120-150 mg/kg/day per os, day 75 to day 95): ~10 days
- improvement of total survival (SOD1 mice; [7]): more than 8 days
- muscle strength (SOD1 mice; [7]): significantly improved
- muscle strength of ipsilateral hind paws after sciatic nerve injury (non-transgenic mice [3]; [8]): significantly improved
- peripheral nerve regeneration after injury (non-transgenic mice [3]; [8]): significantly improves
- correct muscle re-innervation (non-transgenic mice [3]; ambroxol 120-150 mg/kg/day, ten days after injury): significantly improves
- neurite network (total area of innervation) of co-culture [4]: improved
